Experimental data from US9238039B2, “Pyrazolo[1,5-A]pyrimidines for antiviral treatment” (Gilead Sciences, Inc., priority 2010, dated 2016).

Test system: RSV strain A2
Assay: RSV antiviral cytoprotection assay in Hep2 cells (96-well and 384-well format, Cell TiterGlo read-out)
Assay type: cell-based, Respiratory Syncytial Virus (RSV)
Conditions: human respiratory syncytial virus; for inhibition at 0.5 µM: HEp-2, 0.5 uM, RSV-induced cytopathic effect in Hep2 cells, calculated from fitted dose response curve, normalized to 0% and 100%; for EC50: HEp-2, RSV-induced cytopathic effects, Hep2 cells, class symbols

SMILES | inhibition at 0.5 µM [%] | EC50 [nM]
COc1ccsc1C(=O)N1CCCC[C@H]1c1cc2nc(N3CC[C@H](N)C3)c(C)cn2n1 [Compound 308] | 100 | 0.1 to 100
Cc1cn2nc([C@@H]3CCCCN3C(=O)c3cnc(Cl)cn3)cc2nc1N1CC[C@H](N)C1 [Compound 309] | 100 | 0.1 to 100
Cc1cn2nc([C@@H]3CCCCN3C(=O)c3ncc(F)cc3F)cc2nc1N1CC[C@H](N)C1 [Compound 310] | 100 | 0.1 to 100
Cc1cn2nc([C@@H]3CCCCN3C(=O)c3cn4ccccc4n3)cc2nc1N1CC[C@H](N)C1 [Compound 311] | 100 | 0.1 to 100
Cc1cn2nc([C@@H]3CCCCN3C(=O)c3cc4ccccn4n3)cc2nc1N1CC[C@H](N)C1 [Compound 312] | 100 | 0.1 to 100
Cc1cn2nc([C@@H]3CCCCN3C(=O)c3ccc(C4CC4)cc3)cc2nc1N1CC[C@H](N)C1 [Compound 313] | 100 | 0.1 to 100
Cc1cn2nc([C@@H]3CCCCN3C(=O)c3sccc3Cl)cc2nc1N1CC[C@H](N)C1 [Compound 314] | 100 | 0.1 to 100
Cc1cn2nc([C@@H]3CCCCN3C(=O)c3cc4ncccn4n3)cc2nc1N1CC[C@H](N)C1 [Compound 315] | 100 | 0.1 to 100
Cc1cn2nc([C@@H]3CCCCN3C(=O)c3cccc4nnnn34)cc2nc1N1CC[C@H](N)C1 [Compound 316] | 100 | 0.1 to 100
Cc1cn2nc([C@@H]3CCCCN3C(=O)c3cccc4c3OCC4)cc2nc1N1CC[C@H](N)C1 [Compound 317] | 100 | 0.1 to 100
CC(=O)c1cccc(C(=O)N2CCCC[C@H]2c2cc3nc(N4CC[C@H](N)C4)c(C)cn3n2)c1 [Compound 318] | 100 | 0.1 to 100
CCOc1cccc(C(=O)N2CCCC[C@H]2c2cc3nc(N4CC[C@H](N)C4)c(C)cn3n2)c1 [Compound 319] | 100 | 0.1 to 100
COc1c(C)cccc1C(=O)N1CCCC[C@H]1c1cc2nc(N3CC[C@H](N)C3)c(C)cn2n1 [Compound 320] | 100 | 0.1 to 100
COCc1ccc(C(=O)N2CCCC[C@H]2c2cc3nc(N4CC[C@H](N)C4)c(C)cn3n2)cc1 [Compound 321] | 100 | 0.1 to 100
COc1ccc(C(=O)N2CCCC[C@H]2c2cc3nc(N4CC[C@H](N)C4)c(C)cn3n2)c(C)c1 [Compound 322] | 100 | 0.1 to 100
CCOc1ccccc1C(=O)N1CCCC[C@H]1c1cc2nc(N3CC[C@H](N)C3)c(C)cn2n1 [Compound 323] | 100 | 0.1 to 100
COc1cccc(C(=O)N2CCCC[C@H]2c2cc3nc(N4CC[C@H](N)C4)c(C)cn3n2)c1O [Compound 325] | 98 | 0.1 to 100
Cc1cn2nc([C@@H]3CCCCN3C(=O)c3cc(C)c(F)c(C)c3)cc2nc1N1CC[C@H](N)C1 [Compound 326] | 100 | 0.1 to 100
Cc1cn2nc([C@@H]3CCCCN3C(=O)c3cn4ccsc4n3)cc2nc1N1CC[C@H](N)C1 [Compound 327] | 100 | 0.1 to 100
Cc1cn2nc([C@@H]3CCCCN3C(=O)c3cc(C(C)C)nn3C)cc2nc1N1CC[C@H](N)C1 [Compound 328] | 99 | 0.1 to 100

SMILES | inhibition at 0.5 µM [%] | EC50 [nM]
CCCn1nc(C)cc1C(=O)N1CCCC[C@H]1c1cc2nc(N3CC[C@H](N)C3)c(C)cn2n1 [Compound 329] | 98 | 0.1 to 100
COc1cc(F)ccc1C(=O)N1CCCC[C@H]1c1cc2nc(N3CC[C@H](N)C3)c(C)cn2n1 [Compound 330] | 68 | 101 to 1000
Cc1cn2nc([C@@H]3CCCCN3C(=O)c3cccc(Cl)c3C)cc2nc1N1CC[C@H](N)C1 [Compound 331] | 99 | 0.1 to 100
Cc1ccc(C(=O)N2CCCC[C@H]2c2cc3nc(N4CC[C@H](N)C4)c(C)cn3n2)cc1Cl [Compound 332] | 100 | 0.1 to 100
Cc1cc(Cl)ccc1C(=O)N1CCCC[C@H]1c1cc2nc(N3CC[C@H](N)C3)c(C)cn2n1 [Compound 333] | 99 | 0.1 to 100
Cc1cn2nc([C@@H]3CCCCN3C(=O)c3cccc(C)c3Cl)cc2nc1N1CC[C@H](N)C1 [Compound 334] | 100 | 0.1 to 100
Cc1ccc(Cl)cc1C(=O)N1CCCC[C@H]1c1cc2nc(N3CC[C@H](N)C3)c(C)cn2n1 [Compound 335] | 99 | 0.1 to 100
Cc1cn2nc([C@@H]3CCCCN3C(=O)c3ccc(C(N)=O)s3)cc2nc1N1CC[C@H](N)C1 [Compound 336] | 78 | 101 to 1000
Cc1cn2nc([C@@H]3CCCCN3C(=O)c3cccc4ccccc34)cc2nc1N1CC[C@H](N)C1 [Compound 338] | 72 | 101 to 1000
Cc1cn2nc([C@@H]3CCCCN3C(=O)c3cc(O)ccc3Cl)cc2nc1N1CC[C@H](N)C1 [Compound 339] | 99 | 0.1 to 100
Cc1cn2nc([C@@H]3CCCCN3C(=O)c3ccc(Cl)c(O)c3)cc2nc1N1CC[C@H](N)C1 [Compound 340] | 100 | 0.1 to 100
Cc1cc(C(=O)N2CCCC[C@H]2c2cc3nc(N4CC[C@H](N)C4)c(C)cn3n2)c(Cl)nn1 [Compound 341] | 75 | 0.1 to 100
Cc1cn2nc([C@@H]3CCCCN3C(=O)c3nonc3NCCO)cc2nc1N1CC[C@H](N)C1 [Compound 342] | 79 | 101 to 1000
Cc1cn2nc([C@@H]3CCCCN3C(=O)c3ccc4cccnc4c3)cc2nc1N1CC[C@H](N)C1 [Compound 343] | 60 | 101 to 1000
Cc1cn2nc([C@@H]3CCCCN3C(=O)c3nccc4ccccc34)cc2nc1N1CC[C@H](N)C1 [Compound 344] | 100 | 0.1 to 100
Cc1cn2nc([C@@H]3CCCCN3C(=O)c3cc(Cl)cnc3O)cc2nc1N1CC[C@H](N)C1 [Compound 345] | 100 | 0.1 to 100
Cc1cn2nc([C@@H]3CCCCN3C(=O)c3ccc(F)c(F)c3O)cc2nc1N1CC[C@H](N)C1 [Compound 346] | 100 | 0.1 to 100
Cc1cn2nc([C@@H]3CCCCN3C(=O)c3cc(F)ccc3Cl)cc2nc1N1CC[C@H](N)C1 [Compound 347] | 100 | 0.1 to 100
Cc1cn2nc([C@@H]3CCCCN3C(=O)c3c(Cl)c(C)nn3C)cc2nc1N1CC[C@H](N)C1 [Compound 348] | 99 | 0.1 to 100
Cc1cn2nc([C@@H]3CCCCN3C(=O)c3cccc4c3ccn4C)cc2nc1N1CC[C@H](N)C1 [Compound 349] | 100 | 0.1 to 100

SMILES | inhibition at 0.5 µM [%] | EC50 [nM]
Cc1cn2nc([C@@H]3CCCCN3C(=O)c3ccc4ccn(C)c4c3)cc2nc1N1CC[C@H](N)C1 [Compound 350] | 83.6 | 101 to 1000
Cc1cn2nc([C@@H]3CCCCN3C(=O)c3cccc(C(C)C#N)c3)cc2nc1N1CC[C@H](N)C1 (some centres unmarked) [Compound 351] | 100 | 0.1 to 100
Cc1cn2nc([C@@H]3CCCCN3C(=O)c3ccnc(Cl)c3F)cc2nc1N1CC[C@H](N)C1 [Compound 352] | 100 | 0.1 to 100
Cc1cn2nc([C@@H]3CCCCN3C(=O)c3c(F)ccc(F)c3F)cc2nc1N1CC[C@H](N)C1 [Compound 353] | 100 | 0.1 to 100
Cc1cc(C(=O)N2CCCC[C@H]2c2cc3nc(N4CC[C@H](N)C4)c(C)cn3n2)n(C(F)F)n1 [Compound 354] | 87 | 101 to 1000
Cc1cn2nc([C@@H]3CCCCN3C(=O)c3cc(C)n(C(F)F)n3)cc2nc1N1CC[C@H](N)C1 [Compound 355] | 96 | 0.1 to 100
Cc1cn2nc([C@@H]3CCCCN3C(=O)c3ccn(CC(F)F)n3)cc2nc1N1CC[C@H](N)C1 [Compound 356] | 100 | 0.1 to 100
Cc1cn2nc([C@@H]3CCCCN3C(=O)c3nn(C)c4ccccc34)cc2nc1N1CC[C@H](N)C1 [Compound 357] | 82 | 101 to 1000
Cc1cn2nc([C@@H]3CCCCN3C(=O)c3cccn4c(C)nnc34)cc2nc1N1CC[C@H](N)C1 [Compound 358] | 100 | 0.1 to 100
Cc1cn2nc([C@@H]3CCCCN3C(=O)c3ccc4c(c3)nnn4C)cc2nc1N1CC[C@H](N)C1 [Compound 359] | 100 | 0.1 to 100
Cc1cn2nc([C@@H]3CCCCN3C(=O)c3cc(-c4ccco4)n[nH]3)cc2nc1N1CC[C@H](N)C1 [Compound 360] | 66 | 101 to 1000
Cc1cn2nc([C@@H]3CCCCN3C(=O)c3ccc4ncsc4c3)cc2nc1N1CC[C@H](N)C1 [Compound 361] | 88 | 0.1 to 100
Cc1cn2nc([C@@H]3CCCCN3C(=O)c3cc4cccnc4s3)cc2nc1N1CC[C@H](N)C1 [Compound 362] | 100 | 0.1 to 100
Cc1cn2nc([C@@H]3CCCCN3C(=O)c3nc4ccccn4c3F)cc2nc1N1CC[C@H](N)C1 [Compound 363] | 99 | 0.1 to 100
Cc1cn2nc([C@@H]3CCCCN3C(=O)c3ccc4c(c3)OCCO4)cc2nc1N1CC[C@H](N)C1 [Compound 364] | 99 | 0.1 to 100
Cc1cn2nc([C@@H]3CCCCN3C(=O)c3cccc(OC(C)C)c3)cc2nc1N1CC[C@H](N)C1 [Compound 365] | 100 | 0.1 to 100
Cc1cn2nc([C@@H]3CCCCN3C(=O)c3cnn(C4CCCC4)c3)cc2nc1N1CC[C@H](N)C1 [Compound 366] | 100 | 0.1 to 100
Cc1cn2nc([C@@H]3CCCCN3C(=O)c3c4c(nn3C)CCCC4)cc2nc1N1CC[C@H](N)C1 [Compound 367] | 94 | 0.1 to 100
